The nature of series [1]: Form stability at high temperature and humidity (uncovered vial in stability chamber, then PXRD / 1H NMR analysis). The class given is physicochemical. Also on record: key to Form stability result (PXRD): NC: no change in PXRD. As to conditions: 40° C./75% RH. The procedure:
PXRD diffractograms were recorded on a Bruker D8 Discover powder X-ray diffractometer (Bruker AXS LLC, Karlsruhe, Germany). The sample holder was oscillated along X and Y axes during the measurement. The generator was a Incoatec Microfocus Source (IμS) Cu tube (λ=1.54060 Å) with a voltage of 50 kV and current of 1.00 mA, using a divergence slit of 0.3 mm and collimator of 0.3 mm. For each sample, one frame was collected using a still scan with a PILATUS3 R 100K-A detector at the distance of 154.72 mm from the sample. Raw data were evaluated using the program DIFFRAC.EVA (Bruker AXS LLC, Karlsruhe, Germany).
Samples were kept in an uncovered vial in a stability chamber maintained at 40° C./75% relative humidity (RH) for the specified period prior to PXRD analysis to evaluate form stability.

For series [2] the following is noted: cited from earlier work.
For series [3] the following is noted: cited from earlier work. This is another data set of the same source.
For series [4] the following is noted: cited from earlier work. This is another data set of the same source.

As for `COC(=O)c1ccc2c(c1)NC(=O)C2=C(Nc1ccc(N(C)C(=O)CN2CCN(C)CC2)cc1)c1ccccc1.O=C1NS(=O)(=O)c2ccccc21` [Nintedanib saccharinate Form APO-I, nintedanib saccharinate], the “Form stability result (PXRD)” value in series [1] (1 month) was “NC”.

For the compound `CC1=CC(=O)NS(=O)(=O)O1.COC(=O)c1ccc2c(c1)NC(=O)C2=C(Nc1ccc(N(C)C(=O)CN2CCN(C)CC2)cc1)c1ccccc1` [Nintedanib acesulfamate Form APO-I, nintedanib acesulfamate], the “Form stability result (PXRD)” value in series [1] (1 month) is “NC”. Consider `COC(=O)c1ccc2c(c1)NC(=O)C2=C(Nc1ccc(N(C)C(=O)CN2CCN(C)CC2)cc1)c1ccccc1.O=C(O)CNC(=O)c1ccccc1` [Nintedanib hippurate Form APO-I, nintedanib hippurate], for which the “Form stability result (PXRD)” value in series [1] (3 months) was “NC”. Also, in series [1] (after storage (3 months per Table 8)), the “1H NMR spectroscopy following storage” value was “no change”. As for `COC(=O)c1ccc2c(c1)NC(=O)/C2=C(\Nc1ccc(N(C)C(=O)CN2CCN(C)CC2)cc1)c1ccccc1` [nintedanib esylate, (3Z)-2,3-dihydro-3-[[[4-[methyl[(4-methyl-1-piperazinyl)acetyl]amino]phenyl]amino]phenylmethylene]-2-oxo-1H-indole-6-carboxylic acid methyl ester], in series [2], the “Solubility in neutral aqueous conditions” value is “poor”. Further, in series [3], the Bioavailability in humans result was “low”. Also, the “Chemical stability in the presence of water” value in series [4] is on record as “undergo hydrolysis”.

For `COC(=O)c1ccc2c(c1)NC(=O)C2=C(Nc1ccc(N(C)C(=O)CN2CCN(C)CC2)cc1)c1ccccc1.O=C(O)CCCC(=O)O` [Nintedanib glutarate Form APO-I, nintedanib glutarate], in series [1] (1 month), the “Form stability result (PXRD)” value is listed as “NC”. Regarding `CC1=CC(=O)NS(=O)(=O)O1.CC1=CC(=O)NS(=O)(=O)O1.COC(=O)c1ccc2c(c1)NC(=O)C2=C(Nc1ccc(N(C)C(=O)CN2CCN(C)CC2)cc1)c1ccccc1` [Nintedanib diacesulfamate Form APO-I, nintedanib diacesulfamate], in series [1] (3 months), the “Form stability result (PXRD)” value is reported as “NC”. As for `CC(=O)CCC(=O)O.COC(=O)c1ccc2c(c1)NC(=O)C2=C(Nc1ccc(N(C)C(=O)CN2CCN(C)CC2)cc1)c1ccccc1` [Nintedanib levulinate Form APO-I, nintedanib levulinate], the “Form stability result (PXRD)” value in series [1] (3 months) is “NC”.
